From ChEMBL document CHEMBL3132854, “Synthesis and anticancer activity evaluation of resveratrolchalcone conjugates” (2014)

Tests used:
[1] = system: LOX IMVI; test: Growth inhibition of human LOXIMVI cells assessed as cell growth at 10 uM by sulforhodamine B assay relative to control; values are per cent of control
[2] = system: SR; test: Growth inhibition of human SR cells assessed as cell growth at 10 uM by sulforhodamine B assay relative to control; values are per cent of control
[3] = system: SN12C; test: Growth inhibition of human SN12C cells assessed as cell growth at 10 uM by sulforhodamine B assay relative to control; values are per cent of control
[4] = system: Malme-3M; test: Growth inhibition of human MALME-3M cells assessed as cell growth at 10 uM by sulforhodamine B assay relative to control; values are per cent of control
[5] = system: COLO 205; test: Growth inhibition of human COLO205 cells assessed as cell growth at 10 uM by sulforhodamine B assay relative to control; values are per cent of control
[6] = system: SK-MEL-28; test: Growth inhibition of human SK-MEL-28 cells assessed as cell growth at 10 uM by sulforhodamine B assay relative to control; values are per cent of control
[7] = system: SF-268; test: Growth inhibition of human SF268 cells assessed as cell growth at 10 uM by sulforhodamine B assay relative to control; values are per cent of control
[8] = system: OVCAR-3; test: Growth inhibition of human OVCAR3 cells assessed as cell growth at 10 uM by sulforhodamine B assay relative to control; values are per cent of control
[9] = system: NCI-H522; test: Growth inhibition of human NCI-H522 cells assessed as cell growth at 10 uM by sulforhodamine B assay relative to control; values are per cent of control
[10] = system: HL-60(TB); test: Growth inhibition of human HL-60(TB) cells assessed as cell growth at 10 uM by sulforhodamine B assay relative to control; format: functional; conditions: values are per cent of control
[11] = system: M14; test: Growth inhibition of human M14 cells assessed as cell growth at 10 uM by sulforhodamine B assay relative to control; values are per cent of control
[12] = system: KM12; test: Growth inhibition of human KM12 cells assessed as cell growth at 10 uM by sulforhodamine B assay relative to control; values are per cent of control
[13] = system: A498; test: Growth inhibition of human A498 cells assessed as cell growth at 10 uM by sulforhodamine B assay relative to control; values are per cent of control
[14] = system: SK-MEL-2; test: Growth inhibition of human SK-MEL-2 cells assessed as cell growth at 10 uM by sulforhodamine B assay relative to control; values are per cent of control
[15] = Growth inhibition of human NCI-ADR-RES cells assessed as cell growth at 10 uM by sulforhodamine B assay relative to control; values are per cent of control
[16] = Growth inhibition of human HOP92 cells assessed as cell growth at 10 uM by sulforhodamine B assay relative to control; values are per cent of control; conditions: HOP-92
[17] = system: NCI-H460; test: Growth inhibition of human NCI-H460 cells assessed as cell growth at 10 uM by sulforhodamine B assay relative to control; values are per cent of control
[18] = system: NCI-H23; test: Growth inhibition of human NCI-H23 cells assessed as cell growth at 10 uM by sulforhodamine B assay relative to control; values are per cent of control
[19] = system: RPMI-8226; test: Growth inhibition of human RPMI8226 cells assessed as cell growth at 10 uM by sulforhodamine B assay relative to control; values are per cent of control
[20] = system: HCT-15; test: Growth inhibition of human HCT15 cells assessed as cell growth at 10 uM by sulforhodamine B assay relative to control; values are per cent of control
[21] = system: HCT-116; test: Growth inhibition of human HCT116 cells assessed as cell growth at 10 uM by sulforhodamine B assay relative to control; values are per cent of control
[22] = system: CCRF-CEM; test: Growth inhibition of human CCRF-CEM cells assessed as cell growth at 10 uM by sulforhodamine B assay relative to control; format: functional; conditions: values are per cent of control
[23] = system: ACHN; test: Growth inhibition of human ACHN cells assessed as cell growth at 10 uM by sulforhodamine B assay relative to control; values are per cent of control
[24] = system: SW-620; test: Growth inhibition of human SW620 cells assessed as cell growth at 10 uM by sulforhodamine B assay relative to control; values are per cent of control
[25] = Growth inhibition of human SF539 cells assessed as cell growth at 10 uM by sulforhodamine B assay relative to control; values are per cent of control; conditions: SF-539
[26] = Growth inhibition of human OVCAR5 cells assessed as cell growth at 10 uM by sulforhodamine B assay relative to control; values are per cent of control; conditions: OVCAR-5
[27] = system: MCF7; test: Growth inhibition of human MCF7 cells assessed as cell growth at 10 uM by sulforhodamine B assay relative to control; values are per cent of control
[28] = system: K562; test: Growth inhibition of human K562 cells assessed as cell growth at 10 uM by sulforhodamine B assay relative to control; values are per cent of control
[29] = Growth inhibition of human UACC257 cells assessed as cell growth at 10 uM by sulforhodamine B assay relative to control; values are per cent of control; conditions: UACC-257
[30] = system: HOP-62; test: Growth inhibition of human HOP62 cells assessed as cell growth at 10 uM by sulforhodamine B assay relative to control; values are per cent of control
[31] = system: OVCAR-8; test: Growth inhibition of human OVCAR8 cells assessed as cell growth at 10 uM by sulforhodamine B assay relative to control; values are per cent of control

COc1ccc(/C=C/c2ccc(/C=C/C(=O)c3ccc(Cl)cc3)cc2)cc1
growth, % of control at 10 µM [1]: 95% | growth, % of control at 10 µM [2]: 82.4% | growth, % of control at 10 µM [3]: 99.8% | growth, % of control at 10 µM [4]: 103% | growth, % of control at 10 µM [5]: 111% | growth, % of control at 10 µM [6]: 112% | growth, % of control at 10 µM [7]: 96.5% | growth, % of control at 10 µM [8]: 101% | growth, % of control at 10 µM [9]: 106% | growth, % of control at 10 µM [10]: 92.2% | growth, % of control at 10 µM [11]: 104% | growth, % of control at 10 µM [12]: 96.3% | growth, % of control at 10 µM [13]: 76% | growth, % of control at 10 µM [14]: 101% | growth, % of control at 10 µM [15]: 109% | growth, % of control at 10 µM [16]: 98.5% | growth, % of control at 10 µM [17]: 101% | growth, % of control at 10 µM [18]: 100% | growth, % of control at 10 µM [19]: 99.2% | growth, % of control at 10 µM [20]: 101% | growth, % of control at 10 µM [21]: 93.3% | growth, % of control at 10 µM [22]: 97.2% | growth, % of control at 10 µM [23]: 110% | growth, % of control at 10 µM [24]: 102% | growth, % of control at 10 µM [25]: 109% | growth, % of control at 10 µM [26]: 102% | growth, % of control at 10 µM [27]: 89.5% | growth, % of control at 10 µM [28]: 87.3% | growth, % of control at 10 µM [29]: 101% | growth, % of control at 10 µM [30]: 105% | growth, % of control at 10 µM [31]: 109%
